Assay results from ChEMBL document CHEMBL1146012, “5-benzylidene-hydantoins as new EGFR inhibitors with antiproliferative activity” (Bioorg Med Chem Lett, 2006).

Molecular target: Epidermal growth factor receptor (Homo sapiens, UniProt P00533)
Assay: Inhibition of EGFR-mediated polyGAT phosphorylation at 10 uM

Sequence of Epidermal growth factor receptor (P00533 whole entry): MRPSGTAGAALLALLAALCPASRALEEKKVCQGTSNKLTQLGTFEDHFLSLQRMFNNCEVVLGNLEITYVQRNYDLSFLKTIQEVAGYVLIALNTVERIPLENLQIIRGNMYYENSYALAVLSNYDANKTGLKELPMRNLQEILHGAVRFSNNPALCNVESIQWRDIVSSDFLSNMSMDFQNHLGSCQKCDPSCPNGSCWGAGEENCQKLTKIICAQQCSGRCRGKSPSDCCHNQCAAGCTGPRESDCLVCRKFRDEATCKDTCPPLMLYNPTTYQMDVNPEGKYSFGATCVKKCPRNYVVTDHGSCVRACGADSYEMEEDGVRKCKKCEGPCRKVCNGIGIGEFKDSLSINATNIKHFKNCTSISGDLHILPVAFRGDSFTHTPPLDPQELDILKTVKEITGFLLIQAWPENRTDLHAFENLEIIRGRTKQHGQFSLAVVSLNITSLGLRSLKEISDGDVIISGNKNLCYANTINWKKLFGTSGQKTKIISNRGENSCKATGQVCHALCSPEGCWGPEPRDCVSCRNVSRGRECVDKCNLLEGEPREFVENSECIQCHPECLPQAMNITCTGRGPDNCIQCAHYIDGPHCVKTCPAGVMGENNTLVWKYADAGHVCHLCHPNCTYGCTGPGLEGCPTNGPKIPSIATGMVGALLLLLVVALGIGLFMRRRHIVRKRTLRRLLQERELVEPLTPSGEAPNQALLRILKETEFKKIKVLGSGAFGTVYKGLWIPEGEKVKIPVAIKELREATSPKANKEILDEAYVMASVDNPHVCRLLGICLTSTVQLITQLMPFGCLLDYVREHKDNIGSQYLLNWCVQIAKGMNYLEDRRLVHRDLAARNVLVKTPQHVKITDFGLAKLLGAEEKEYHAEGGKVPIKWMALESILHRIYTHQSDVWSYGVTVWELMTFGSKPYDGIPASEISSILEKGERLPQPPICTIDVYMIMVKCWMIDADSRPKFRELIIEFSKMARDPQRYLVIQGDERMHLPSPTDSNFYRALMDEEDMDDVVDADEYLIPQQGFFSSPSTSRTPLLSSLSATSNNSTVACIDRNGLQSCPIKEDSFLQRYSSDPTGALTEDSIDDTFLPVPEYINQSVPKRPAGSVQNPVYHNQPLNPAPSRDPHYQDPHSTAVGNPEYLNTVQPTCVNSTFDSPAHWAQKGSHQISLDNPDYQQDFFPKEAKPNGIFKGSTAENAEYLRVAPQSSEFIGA

IC50: 710 nM
SMILES: O=C1NC(=O)N(CCc2ccccc2)/C1=C/c1ccc(O)cc1
